# Assay results taken from patent publication US20220016112A1, “DIHYDROQUINOXALINE AND DIHYDROPYRIDOPYRAZINE DERIVATIVES AS RSV INHIBITORS” (Enanta Pharmaceuticals, Inc., priority 2020, published 2022).
# System: Human RSV-A (“Long” strain)
# Test: RSV in vitro cytoprotection assay in HEp-2 cells (ATPlite readout)
# Assay type: cell-based
# Details: human respiratory syncytial virus, 96 h; HEp-2 cells, genotype A “Long” strain RSV, 4-day incubation, ATPlite; read-out: Human RSV-A (“Long” strain) EC50
# Text: RSV is a single stranded negative sense RNA virus that causes respiratory tract infections which can be dangerous to infants, the elderly, and immunosuppressed individuals. Currently there is no vaccine, and therapeutic options are both costly and of limited effectiveness. These approved treatments are Ribavirin, and Palivizumab/Synagis (a monoclonal antibody). RSV has two genotypes, A and B, which differ primarily in the structure of the virus' surface “G” attachment protein. Our current primary screen focusses on RSV-A and uses an in vitro cytoprotection assay where compounds are added in 2-fold dilutions to cells which are then subjected to fully replicative viral particles. Cell viability is measured several days later along with separate measurements of compound cytotoxicity. This report focuses on the results of our most recent screening of compounds.
# HEp-2 cells, (originally derived from tumors grown in irradiated-cortisonised weanling rats that had been injected with epidermoid carcinoma tissue from a person's larynx, but later found to be indistinguishable from HeLa cells by PCR DNA analysis), were used for the culturing of genotype A, “Long” strain RSV. Flasks were inoculated with RSV and viral stocks were collected once cytopathic effect (CPE) was greater than 90%. Viral stocks in 25% sucrose media were snap frozen using liquid nitrogen to increase viral stability. Viral stock titers were quantified by tissue culture infectious dose 50% (TCID50) using 8,000 cells per well and 3-fold viral dilutions across a 96-well plate, cultured for 4 days.
# Following extensive parameter testing, the final assay is run as follows: HEp-2 cells are seeded into the inner 60 wells of a 96-well plate at 8,000 cells per well in a volume of 50 μL using Growth Media (DMEM without phenol red, 1% L-Glut, 1% Penn/Strep, 1% nonessential amino acids, 10% FBS). 2-Fold serial dilutions of control and test compounds are added to the wells in duplicate in a total volume of 25 μL. Viral stock is then added to the wells in a volume of 25 μL, bringing the total volume of each well to 100 μL. Each 96-well plate has a control column of 6 wells with cells and virus but no compound (negative control, max CPE), a column with cells but no compound or virus (positive control, minimum CPE), and a column with no cells or virus or compound (background plate/reagent control). The control wells with cells but no virus are given an additional 25 uL of growth media containing an equal quantity of sucrose as those wells receiving the viral stock in order to keep consistent in media and volume conditions. The outer wells of the plate are filled with 125 μL of growth media to act as a thermal and evaporative moat around the test wells. Following a 4-day incubation period, the plates are read using ATPlite (50 uL added per well), which quantifies the amount of ATP (a measure of cell health) present in each well. Assay plates are read using the Envision luminometer. In parallel, cytotoxicity is examined on an additional 96-well plate treated in an identical manner, but substituting the 25 μL of viral stock for 25 μL of growth media. […] EC50 ranges are as follows: A<0.01 μM; B 0.01-0.05 μM; C>0.05 μM.
row,SMILES,EC50
1,Cc1cnc(N2CC3(CCOCC3)C2)c(C(=O)Nc2ccc(C(=O)N3c4ccccc4N=C(c4ccc(C(=O)Nc5c(C)cccc5F)cc4)[C@H]3C)cc2)c1 [Example 26],> 50 nM
2,Cc1cnc(N2CC3(CCOCC3)C2)c(C(=O)Nc2ccc(C(=O)N3c4ccccc4N=C(c4ccc(C(=O)NC5CC5)cc4)[C@H]3C)cc2)c1 [Example 25],> 50 nM
3,Cc1cnc(N2CC3(CCOCC3)C2)c(C(=O)Nc2ccc(C(=O)N3c4ncccc4N=C(c4ccc(C(=O)NC5CCC5)s4)[C@H]3C)cc2)c1 [Example 31],10 to 50 nM
4,Cc1cnc(N2CC3(CCOCC3)C2)c(C(=O)Nc2ccc(C(=O)N3c4ccccc4N=C(c4ccc(C(=O)NC5CC5)cc4)[C@@H]3C)cc2)c1 [Example 4],> 50 nM
5,Cc1cnc(N2CC3(CCOCC3)C2)c(C(=O)Nc2ccc(C(=O)N3c4ncccc4N=C(c4ccc(C(=O)NC5CC5)s4)[C@H]3C)cc2)c1 [Example 30],> 50 nM
6,Cc1cnc(N2CC3(CCOCC3)C2)c(C(=O)Nc2ccc(C(=O)N3c4ccccc4N=C(c4ccc(C(=O)Nc5c(C)cccc5F)s4)[C@H]3C)cc2)c1 [Example 7],10 to 50 nM
7,Cc1cnc(N2CC3(CCOCC3)C2)c(C(=O)Nc2ccc(C(=O)N3c4ccccc4N=C(c4ccc(C(=O)NC5CC(F)(F)C5)s4)[C@H]3C)cc2)c1 [Example 10],10 to 50 nM
8,Cc1cnc(N2CC3(CCOCC3)C2)c(C(=O)Nc2ccc(C(=O)N3c4ccccc4N=C(c4ccc(C(=O)NC5CCC5)s4)[C@@H]3C)cc2)c1 [Example 3],> 50 nM
9,Cc1cnc(N2CC3(CCOCC3)C2)c(C(=O)Nc2ccc(C(=O)N3c4cccnc4N=C(c4ccc(C(=O)NC5CCC5)s4)[C@H]3C)cc2)c1 [Example 29],10 to 50 nM
10,Cc1cnc(N2CC3(CCOCC3)C2)c(C(=O)Nc2ccc(C(=O)N3c4ccccc4N=C(c4ccc(C(=O)NC5CC5)s4)C3(C)C)cc2)c1 [Example 27],> 50 nM
11,C[C@@H]1C(c2ccc(C(=O)NC3CCC3)s2)=Nc2ccccc2N1C(=O)c1ccc(NC(=O)c2cc(C(F)(F)F)cnc2N2CC3(CCOCC3)C2)cc1 [Example 24],10 to 50 nM
12,Cc1cnc(N2CC3(CCOCC3)C2)c(C(=O)Nc2ccc(C(=O)N3c4ccccc4N=C(c4ccc(C(=O)Nc5c(C)cccc5F)s4)[C@@H]3C)cc2)c1 [Example 2],> 50 nM
13,Cc1cnc(N2CC3(CCOCC3)C2)c(C(=O)Nc2ccc(C(=O)N3c4ccccc4N=C(c4ccc(C(=O)Nc5ncccc5F)s4)[C@H]3C)cc2)c1 [Example 14],10 to 50 nM
14,Cc1cnc(N2CC3(CCOCC3)C2)c(C(=O)Nc2ccc(C(=O)N3c4ccccc4N=C(c4ccc(C(=O)NC5CC5)s4)[C@@H]3C)cc2)c1 [Example 1],10 to 50 nM
15,Cc1cnc(N2CC3(CCOCC3)C2)c(C(=O)Nc2ccc(C(=O)N3c4ccccc4N=C(c4ccc(C(=O)NC56CC(C5)C6)s4)[C@H]3C)cc2)c1 [Example 12],< 10 nM
16,Cc1cnc(N2CC3(CCOCC3)C2)c(C(=O)Nc2ccc(C(=O)N3c4ccccc4N=C(c4ccc(C(=O)Nc5c(C)cccc5F)cc4)[C@@H]3C)cc2)c1 [Example 5],> 50 nM
17,C[C@@H]1C(c2ccc(C(=O)NC3CC3)s2)=Nc2ccccc2N1C(=O)c1ccc(NC(=O)c2cc(C(F)(F)F)cnc2N2CC3(CCOCC3)C2)cc1 [Example 23],10 to 50 nM

# Now from value to molecule:
row,EC50,SMILES
1,< 10 nM,Cc1ccc(C(=O)Nc2ccc(C(=O)N3c4ccccc4N=C(c4ccc(C(=O)NC5CC5)s4)[C@H]3C)cc2)c(N2CC3(CCOCC3)C2)n1 [Example 15]
2,< 10 nM,Cc1cnc(N2CC3(CCOCC3)C2)c(C(=O)Nc2ccc(C(=O)N3c4ccccc4N=C(c4ccc(C(=O)NC5(C)CC5)s4)[C@H]3C)cc2)c1 [Example 8]
3,< 10 nM,C[C@@H]1C(c2ccc(C(=O)NC3CCC3)s2)=Nc2ccccc2N1C(=O)c1ccc(NC(=O)c2cc(C3CC3)cnc2N2CC3(CCOCC3)C2)cc1 [Example 20]
4,< 10 nM,Cc1ccc(C(=O)Nc2ccc(C(=O)N3c4ccccc4N=C(c4ccc(C(=O)NC5CCC5)s4)[C@H]3C)cc2)c(N2CC3(CCOCC3)C2)n1 [Example 16]
5,< 10 nM,Cc1cnc(N2CC3(CCOCC3)C2)c(C(=O)Nc2ccc(C(=O)N3c4ccccc4N=C(c4ccc(C(=O)NC5CCC5)s4)[C@H]3C)cc2)c1 [Example 9]
6,< 10 nM,Cc1cnc(N2CC3(CCOCC3)C2)c(C(=O)Nc2ccc(C(=O)N3c4ccccc4N=C(c4ccc(C(=O)NC56CC(C)(C5)C6)s4)[C@H]3C)cc2)c1 [Example 13]
7,< 10 nM,Cc1cnc(N2CC3(CCOCC3)C2)c(C(=O)Nc2ccc(C(=O)N3c4ccccc4N=C(c4ccc(C(=O)NC5(C)CCC5)s4)[C@H]3C)cc2)c1 [Example 11]
8,< 10 nM,Cc1cnc(N2CC3(CCOCC3)C2)c(C(=O)Nc2ccc(C(=O)N3c4ccccc4N=C(c4ccc(C(=O)NC5CCC5)s4)C3(C)C)cc2)c1 [Example 28]
9,< 10 nM,CCc1cnc(N2CC3(CCOCC3)C2)c(C(=O)Nc2ccc(C(=O)N3c4ccccc4N=C(c4ccc(C(=O)NC5CC5)s4)[C@H]3C)cc2)c1 [Example 21]
10,< 10 nM,Cc1cnc(N2CC3(CCOCC3)C2)c(C(=O)Nc2ccc(C(=O)N3c4ccccc4N=C(c4ccc(C(=O)NC5CC5)s4)[C@H]3C)cc2)c1 [Example 6]
11,< 10 nM,C[C@@H]1C(c2ccc(C(=O)NC3CC3)s2)=Nc2ccccc2N1C(=O)c1ccc(NC(=O)c2cc3c(nc2N2CC4(CCOCC4)C2)CCC3)cc1 [Example 17]
12,< 10 nM,CCc1cnc(N2CC3(CCOCC3)C2)c(C(=O)Nc2ccc(C(=O)N3c4ccccc4N=C(c4ccc(C(=O)NC5CCC5)s4)[C@H]3C)cc2)c1 [Example 22]
13,< 10 nM,C[C@@H]1C(c2ccc(C(=O)NC3CCC3)s2)=Nc2ccccc2N1C(=O)c1ccc(NC(=O)c2cc3c(nc2N2CC4(CCOCC4)C2)CCC3)cc1 [Example 18]
14,< 10 nM,C[C@@H]1C(c2ccc(C(=O)NC3CC3)s2)=Nc2ccccc2N1C(=O)c1ccc(NC(=O)c2cc(C3CC3)cnc2N2CC3(CCOCC3)C2)cc1 [Example 19]

# Same assay, conditions: human respiratory syncytial virus, HEp-2
row,SMILES,EC50
1,"O=C(Nc1ccccc1F)N[C@H]1N=C(c2ccccc2)c2ccccc2NC1=O [RSV-604, reference compound]",~2400 nM
